Columns and labels:
Plasminogen = Plasminogen (Homo sapiens, UniProt P00747); assay: Compound was evaluated for its inhibitory potency against plasmin
Tryptase = Tryptase (Homo sapiens, UniProt Q9BZJ3+Q15661+Q9NRR2); assay: Evaluated for its inhibitory potency against tryptase; type: protein assay
Prothrombin = Prothrombin (Homo sapiens, UniProt P00734); assay: Compound was evaluated for its inhibitory potency against thrombin
Serine protease 1 = Serine protease 1 (Homo sapiens, UniProt P07477); assay: Compound was evaluated for its inhibitory potency against trypsin
Serine protease 1, sequence (P07477 whole entry): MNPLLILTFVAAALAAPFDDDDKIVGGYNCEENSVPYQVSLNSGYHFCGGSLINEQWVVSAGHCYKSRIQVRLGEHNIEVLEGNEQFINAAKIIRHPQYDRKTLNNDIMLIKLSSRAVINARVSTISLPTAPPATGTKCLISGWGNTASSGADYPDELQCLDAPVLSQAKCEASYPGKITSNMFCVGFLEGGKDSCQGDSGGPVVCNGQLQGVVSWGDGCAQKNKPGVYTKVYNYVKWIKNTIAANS

Plasminogen, sequence (P00747 97-580 limits assumed): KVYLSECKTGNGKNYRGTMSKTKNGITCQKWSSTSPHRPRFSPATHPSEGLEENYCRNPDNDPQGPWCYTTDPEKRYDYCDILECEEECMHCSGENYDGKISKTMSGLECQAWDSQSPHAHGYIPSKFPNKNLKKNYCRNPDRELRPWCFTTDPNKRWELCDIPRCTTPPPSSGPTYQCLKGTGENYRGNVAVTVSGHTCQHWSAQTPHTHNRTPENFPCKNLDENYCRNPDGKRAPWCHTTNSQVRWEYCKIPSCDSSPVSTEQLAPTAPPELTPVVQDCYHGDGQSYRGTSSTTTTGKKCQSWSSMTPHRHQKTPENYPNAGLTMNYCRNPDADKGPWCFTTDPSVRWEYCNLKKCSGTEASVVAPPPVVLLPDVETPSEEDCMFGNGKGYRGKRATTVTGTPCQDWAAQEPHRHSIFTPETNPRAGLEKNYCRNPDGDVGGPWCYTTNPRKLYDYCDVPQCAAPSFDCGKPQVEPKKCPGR
Plasminogen, sequence (P00747 581-810 limits assumed): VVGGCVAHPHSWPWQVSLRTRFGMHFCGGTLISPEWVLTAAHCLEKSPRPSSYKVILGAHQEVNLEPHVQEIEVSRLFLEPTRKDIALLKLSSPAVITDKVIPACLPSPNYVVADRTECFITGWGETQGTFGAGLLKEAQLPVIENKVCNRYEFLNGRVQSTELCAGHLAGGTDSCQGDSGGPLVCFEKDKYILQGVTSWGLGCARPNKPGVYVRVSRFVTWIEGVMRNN

| Structure (SMILES) | Ki (Plasminogen) | Ki (Tryptase) | Ki (Prothrombin) | Ki (Serine protease 1) |
| --- | --- | --- | --- | --- |
| N=C(N)Nc1ccc(CC(=O)N2CCN(C(=O)O[C@H]3CCC[C@@H](OC(=O)N4CCN(C(=O)Cc5ccc(NC(=N)N)cc5)CC4)CCC3)CC2)cc1 | > 1000 µM | 0.0005 µM | 255 µM | 82 µM |
| N=C(N)Nc1ccc(CNC(=O)N2CCN(C(=O)CCCCCCC(=O)N3CCN(C(=O)NCc4ccc(NC(=N)N)cc4)CC3)CC2)cc1 | > 1000 µM | 0.0001 µM | > 1000 µM | 34 µM |
| N=C(N)Nc1ccc(CNC(=O)N2CCN(C(=O)O[C@H]3CCC[C@@H](OC(=O)N4CCN(C(=O)CCNc5ccncc5)CC4)CCC3)CC2)cc1 | > 1000 µM | 0.097 µM | > 1000 µM | 111 µM |
| N=C(N)Nc1ccc(CNC(=O)N2CCN(C(=O)O[C@H]3CCC[C@@H](OC(=O)N4CCN(C(=O)NCCCCCN)CC4)CCC3)CC2)cc1 | > 1000 µM | 0.0005 µM | > 1000 µM | 129 µM |
| O=C(CCCC1CCNCC1)N1CCN(C(=O)O[C@H]2CCC[C@@H](OC(=O)N3CCN(C(=O)CCCC4CCNCC4)CC3)CCC2)CC1 | > 1000 µM | 0.1 µM | > 1000 µM | > 1000 µM |
| N=C(N)N1CCC(CC(=O)N2CCN(C(=O)O[C@H]3CCC[C@@H](OC(=O)N4CCN(C(=O)CC5CCN(C(=N)N)CC5)CC4)CCC3)CC2)CC1 | > 1000 µM | 0.005 µM | 130 µM | 445 µM |
| N=C(N)Nc1ccc(CNC(=O)N2CCN(C(=O)CCCCCCCC(=O)N3CCN(C(=O)NCc4ccc(NC(=N)N)cc4)CC3)CC2)cc1 | > 1000 µM | 0.0005 µM | > 1000 µM | 29 µM |
| O=C(CCCCCn1ccnc1)N1CCN(C(=O)O[C@H]2CCC[C@@H](OC(=O)N3CCN(C(=O)CCCCCn4ccnc4)CC3)CCC2)CC1 | > 1000 µM | 46 µM | > 1000 µM | > 1000 µM |
| N=C(N)N1CCC(CCC(=O)N2CCN(C(=O)O[C@H]3CCC[C@@H](OC(=O)N4CCN(C(=O)CCC5CCN(C(=N)N)CC5)CC4)CCC3)CC2)CC1 | > 1000 µM | 0.002 µM | 213 µM | 171 µM |
| N=C(N)Nc1ccc(CNC(=O)N2CCN(C(=O)CCCCCCCCC(=O)N3CCN(C(=O)NCc4ccc(NC(=N)N)cc4)CC3)CC2)cc1 | > 1000 µM | 0.0007 µM | > 1000 µM | 20 µM |
| N=C(N)Nc1ccc(CNC(=O)N2CCN(C(=O)O[C@H]3CCC[C@@H](OC(=O)N4CCN(C(=O)CCc5cnc(N)nc5)CC4)CCC3)CC2)cc1 | > 1000 µM | 41 µM | > 1000 µM | 165 µM |
| CC(=N)N1CCC(CCNC(=O)N2CCN(C(=O)O[C@H]3CCC[C@@H](OC(=O)N4CCN(C(=O)NCCC5CCN(C(C)=N)CC5)CC4)CCC3)CC2)CC1 | > 1000 µM | 255 µM | > 1000 µM | > 1000 µM |
| N=C(N)Nc1ccc(CNC(=O)N2CCN(C(=O)O[C@H]3CCC[C@@H](OC(=O)N4CCN(C(=O)NCC5CCNCC5)CC4)CCC3)CC2)cc1 | > 1000 µM | 0.07 µM | > 1000 µM | 148 µM |
| N=C(N)Nc1ccc(CNC(=O)N2CCN(C(=O)O[C@H]3CCC[C@@H](OC(=O)N4CCN(C(=O)NCc5ccc(N)cc5)CC4)CCC3)CC2)cc1 | > 1000 µM | 0.82 µM | > 1000 µM | 126 µM |

The remaining lines, values ahead:

| Ki (Plasminogen) | Ki (Tryptase) | Ki (Prothrombin) | Ki (Serine protease 1) | Structure (SMILES) |
| --- | --- | --- | --- | --- |
| 134 µM | 0.009 µM | 60 µM | 25 µM | N=C(N)c1ccc(CNC(=O)N2CCN(C(=O)O[C@H]3CCC[C@@H](OC(=O)N4CCN(C(=O)NCc5ccc(C(=N)N)cc5)CC4)CCC3)CC2)cc1 |
| > 1000 µM | 0.08 µM | 741 µM | 156 µM | N=C(N)Nc1ccc(CNC(=O)N2CCN(C(=O)O[C@H]3CCC[C@@H](OC(=O)N4CCN(C(=O)CCSc5ccncc5)CC4)CCC3)CC2)cc1 |
| 316 µM | 0.044 µM | > 1000 µM | 54 µM | N=C(N)Nc1ccc(CNC(=O)N2CCN(C(=O)CCCCC(=O)N3CCN(C(=O)NCc4ccc(NC(=N)N)cc4)CC3)CC2)cc1 |
| > 1000 µM | 6 µM | > 1000 µM | > 1000 µM | CNCc1ccc(CNC(=O)N2CCN(C(=O)O[C@H]3CCC[C@@H](OC(=O)N4CCN(C(=O)NCc5ccc(CNC)cc5)CC4)CCC3)CC2)cc1 |
| 570 µM | 1 µM | > 1000 µM | > 1000 µM | NCCc1ccc(CCNC(=O)N2CCN(C(=O)O[C@H]3CCC[C@@H](OC(=O)N4CCN(C(=O)NCCc5ccc(CCN)cc5)CC4)CCC3)CC2)cc1 |
| > 1000 µM | 1 µM | > 1000 µM | > 1000 µM | NCCCCCCNC(=O)N1CCN(C(=O)O[C@H]2CCC[C@@H](OC(=O)N3CCN(C(=O)NCCCCCCN)CC3)CCC2)CC1 |
| > 1000 µM | 0.011 µM | > 1000 µM | 754 µM | NCCCCCNC(=O)N1CCN(C(=O)O[C@H]2CCC[C@@H](OC(=O)N3CCN(C(=O)NCCCCCN)CC3)CCC2)CC1 |
| > 1000 µM | > 1000 µM | > 1000 µM | > 1000 µM | CC(=N)N1CCC(CNC(=O)N2CCN(C(=O)O[C@H]3CCC[C@@H](OC(=O)N4CCN(C(=O)NCC5CCN(C(C)=N)CC5)CC4)CCC3)CC2)CC1 |
| 60 µM | 0.44 µM | 36 µM | 66 µM | N=C(N)c1ccc(CCNC(=O)N2CCN(C(=O)O[C@H]3CCC[C@@H](OC(=O)N4CCN(C(=O)NCCc5ccc(C(=N)N)cc5)CC4)CCC3)CC2)cc1 |
| 155 µM | 0.0002 µM | 34 µM | 11 µM | N=C(N)c1ccc(CC(=O)N2CCN(C(=O)O[C@H]3CCC[C@@H](OC(=O)N4CCN(C(=O)Cc5ccc(C(=N)N)cc5)CC4)CCC3)CC2)cc1 |
| 3 µM | 0.0004 µM | 123 µM | 20 µM | N=C(N)Nc1ccc(CNC(=O)N2CCN(C(=O)OCC34CCC(COC(=O)N5CCN(C(=O)NCc6ccc(NC(=N)N)cc6)CC5)(CC3)CC4)CC2)cc1 |
| 700 µM | 0.008 µM | 138 µM | 15 µM | N=C(N)Nc1ccc(CNC(=O)N2CCN(C(=O)OC[C@H]3C4C=CC(CC4)[C@@H]3COC(=O)N3CCN(C(=O)NCc4ccc(NC(=N)N)cc4)CC3)CC2)cc1 |
| 576 µM | 0.01 µM | 363 µM | 17 µM | N=C(N)Nc1ccc(CNC(=O)N2CCN(C(=O)OCC34CC5CC(C3)CC(COC(=O)N3CCN(C(=O)NCc6ccc(NC(=N)N)cc6)CC3)(C5)C4)CC2)cc1 |
